For orientation: GI50 means the concentration giving 50% growth inhibition.

In ChEMBL document CHEMBL1777777, “Design, synthesis of symmetrical bivalent mimetics of annonaceous acetogenins and their cytotoxicities” (Bioorg Med Chem Lett, 2011) one finds GI50 data, which are given here for eight compounds.

Calls of active or inactive are those of the source. No cut-off for these calls is given here.

The subject of data set [1] is HCT-116. Briefly: Cytotoxicity against human HCT116 cells after 74 hrs by MTT assay. Format: functional. A general note: Formazan colour is commonly taken as a measure of viable cells.
Data set [2] has as its system SGC-7901. Briefly: Cytotoxicity against human SGC7901 cells after 74 hrs by MTT assay. Format: functional.
For data set [3], the system named is MCF7. Put plainly: Cytotoxicity against human MCF7 cells after 74 hrs by MTT assay. Format: functional.
The nature of data set [4]: Cytotoxicity against human BEAS2B cells after 74 hrs by MTT assay. Particulars: for GI50: beas-2b, 74 h; for GI50 at 74 h: BEAS2B cells. The format is cell-based, BEAS-2B.
Data set [5] relates to HT-29. Put plainly: Cytotoxicity against human HT-29 cells after 74 hrs by MTT assay. Format: functional.
Data set [6] in a line: Cytotoxicity against human HLF cells after 74 hrs by MTT assay. Format: cell-based. To be noted: for GI50: hlf, 74 h; for GI50 at 74 h: HLF cells.

`COc1c(C)c(CCCCCCCCCN2CCN(CCCCCCCCCc3c(C)c(OC)c(OC)c(OC)c3OC)CC2)c(OC)c(OC)c1OC`: the GI50 entry in data set [1], in data set [2], in data set [3] and in data set [5] was “inactive” each time. For the same compound, the GI50 result in data set [4] and in data set [6] was “Not Active” each time.

As to `COC1=C(OC)C(=O)C(CCCCCCCCCN2CCN(CCCCCCCCCC3=C(C)C(=O)C(OC)=C(OC)C3=O)CC2)=C(C)C1=O`, the GI50 in data set [1] (HCT-116, 74 h) was 0.5 µM; in data set [2] (SGC-7901, 74 h), 0.49 µM; in data set [3] (MCF7, 74 h), 0.4 µM; in data set [5] (HT-29, 74 h), over 10 µM. Further, the GI50 at 74 h in data set [4] and in data set [6] was over 10 µM throughout.

Take `CCCCCCCCCC[C@H](O)COCCOC[C@@H](O)CCCCCCCCCCCCC1=C[C@H](C)OC1=O`: the GI50 in data set [1] (HCT-116, 74 h) was determined as 0.11 µM; in data set [2] (SGC-7901, 74 h), 0.06 µM; in data set [3] (MCF7, 74 h), 0.26 µM; in data set [5] (HT-29, 74 h), 0.35 µM. Besides, the GI50 at 74 h in data set [4] and in data set [6] was over 10 µM throughout.

`C[C@H]1C=C(CCCCCCCC(O)CNCCCNCC(O)CCCCCCCC2=C[C@H](C)OC2=O)C(=O)O1` (mixture of isomers): the GI50 entry in data set [1], in data set [2], in data set [3] and in data set [5] was “inactive” throughout. Further, the GI50 result in data set [4] and in data set [6] was “Not Active” each time.

With `C[C@H]1C=C(CCCCCCCC(O)CN(C)CCN(C)CC(O)CCCCCCCC2=C[C@H](C)OC2=O)C(=O)O1` (mixture of isomers), the GI50 entry in data set [1] and in data set [5] was “inactive” throughout. Moreover, the GI50 in data set [2] (SGC-7901, 74 h) amounted to 6.22 µM; in data set [3] (MCF7, 74 h), 3.16 µM. The concentration for 50% growth inhibition (GI50) at 74 h in data set [4] and in data set [6] was over 10 µM in each case.

In the case of `C[C@H]1C=C(CCCCCCCC(O)CN(C)CCCN(C)CC(O)CCCCCCCC2=C[C@H](C)OC2=O)C(=O)O1` (mixture of isomers), the GI50 in data set [1] (HCT-116, 74 h) was over 10 µM; in data set [2] (SGC-7901, 74 h), 4.12 µM; in data set [3] (MCF7, 74 h), 2.38 µM; in data set [5] (HT-29, 74 h) it was 1.5 µM. The GI50 at 74 h turned out to be 10.6 µM in data set [4] and 4.42 µM in data set [6].

Take `C[C@H]1C=C(CCCCCCCC(O)CNc2ccc(NCC(O)CCCCCCCC3=C[C@H](C)OC3=O)cc2)C(=O)O1` (mixture of isomers): the GI50 in data set [1] (HCT-116, 74 h) is 2.49 µM; in data set [2] (SGC-7901, 74 h), 4.4 µM; in data set [3] (MCF7, 74 h) it was 7.37 µM; in data set [4], “Not Active”; in data set [5] (HT-29, 74 h), 0.87 µM; in data set [6] it was “Not Active”.

In the case of `C[C@H]1C=C(CCCCCCCC(O)CN2CCN(CC(O)CCCCCCCC3=C[C@H](C)OC3=O)CC2)C(=O)O1` (mixture of isomers), the GI50 is 3.72 µM in data set [1] (HCT-116, 74 h); 1.67 µM in data set [2] (SGC-7901, 74 h); 2.19 µM in data set [3] (MCF7, 74 h); “Not Active” in data set [4]; over 10 µM in data set [5] (HT-29, 74 h). The GI50 at 74 h in data set [6] is over 10 µM.
